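Five compound concentrations were applied to cells in 96-well plates for 48 hours; endpoints were derived by simple linear interpolation of the resulting dose-response curve. GI50 marks 50% less growth. Definition used: TGI = concentration required for complete inhibition of growth.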
Tests used:
Experiment in all cases: growth of human tumour cells (NCI), 48 h
786-0 renal = tested on: 786-0 renal
A498 renal = tested on: A498 renal
A549 NSCLC = tested on: A549 NSCLC
ACHN renal = tested on: ACHN renal
BT-549 breast = tested on: BT-549 breast
CAKI-1 renal = tested on: CAKI-1 renal
CCRF-CEM leukemia = tested on: CCRF-CEM leukemia
COLO 205 colon = tested on: COLO 205 colon
DU-145 prostate = tested on: DU-145 prostate
EKVX NSCLC = tested on: EKVX NSCLC
HCC-2998 colon = tested on: HCC-2998 colon
HCT-116 colon = tested on: HCT-116 colon
HCT-15 colon = tested on: HCT-15 colon
HL-60(TB) leukemia = tested on: HL-60(TB) leukemia
HOP-62 NSCLC = tested on: HOP-62 NSCLC
HOP-92 NSCLC = tested on: HOP-92 NSCLC
HS 578T breast = tested on: HS 578T breast
HT29 colon = tested on: HT29 colon
IGROV1 ovarian = tested on: IGROV1 ovarian
K-562 leukemia = tested on: K-562 leukemia
KM12 colon = tested on: KM12 colon
LOX IMVI melanoma = tested on: LOX IMVI melanoma
M14 melanoma = tested on: M14 melanoma
MALME-3M melanoma = tested on: MALME-3M melanoma
MCF7 breast = tested on: MCF7 breast
MDA-MB-231 breast = tested on: MDA-MB-231 breast
MDA-MB-435 = tested on: MDA-MB-435
MOLT-4 leukemia = tested on: MOLT-4 leukemia
NCI-H226 lung = tested on: NCI-H226 lung
NCI-H23 lung = tested on: NCI-H23 lung
NCI-H460 lung = tested on: NCI-H460 lung
NCI-H522 lung = tested on: NCI-H522 lung
NCI/ADR-RES ovarian = tested on: NCI/ADR-RES ovarian
OVCAR-3 ovarian = tested on: OVCAR-3 ovarian
OVCAR-4 ovarian = tested on: OVCAR-4 ovarian
OVCAR-5 ovarian = tested on: OVCAR-5 ovarian
OVCAR-8 ovarian = tested on: OVCAR-8 ovarian
PC-3 prostate = tested on: PC-3 prostate
RPMI-8226 leukemia = tested on: RPMI-8226 leukemia
SF-268 CNS = tested on: SF-268 CNS
SF-295 CNS = tested on: SF-295 CNS
SF-539 CNS = tested on: SF-539 CNS
SK-MEL-2 melanoma = tested on: SK-MEL-2 melanoma
SK-MEL-28 melanoma = tested on: SK-MEL-28 melanoma
SK-MEL-5 melanoma = tested on: SK-MEL-5 melanoma
SK-OV-3 ovarian = tested on: SK-OV-3 ovarian
SN12C renal = tested on: SN12C renal
SNB-19 CNS = tested on: SNB-19 CNS
SNB-75 CNS = tested on: SNB-75 CNS
SR leukemia = tested on: SR leukemia
SW-620 colon = tested on: SW-620 colon
T-47D breast = tested on: T-47D breast
TK-10 renal = tested on: TK-10 renal
U251 CNS = tested on: U251 CNS
UACC-257 melanoma = tested on: UACC-257 melanoma
UACC-62 melanoma = tested on: UACC-62 melanoma
UO-31 renal = tested on: UO-31 renal

SMILES: Brc1cccc(-c2cc(-c3ccc4nccnc4c3)[nH]n2)c1
- GI50 (786-0 renal): 1.66 µM
- TGI (786-0 renal): > 250 µM
- GI50 (A498 renal): 0.418 µM
- TGI (A498 renal): 1.86 µM
- GI50 (A549 NSCLC): 0.86 µM
- TGI (A549 NSCLC): > 250 µM
- GI50 (ACHN renal): 1.72 µM
- TGI (ACHN renal): > 250 µM
- GI50 (BT-549 breast): 2.15 µM
- TGI (BT-549 breast): > 250 µM
- GI50 (CAKI-1 renal): 0.599 µM
- TGI (CAKI-1 renal): > 250 µM
- GI50 (CCRF-CEM leukemia): 0.864 µM
- TGI (CCRF-CEM leukemia): > 250 µM
- GI50 (COLO 205 colon): 0.286 µM
- TGI (COLO 205 colon): 3.93 µM
- GI50 (DU-145 prostate): 1.09 µM
- TGI (DU-145 prostate): > 200 µM
- GI50 (EKVX NSCLC): 4.24 µM
- TGI (EKVX NSCLC): > 250 µM
- GI50 (HCC-2998 colon): 3.25 µM
- TGI (HCC-2998 colon): > 250 µM
- GI50 (HCT-116 colon): 0.603 µM
- TGI (HCT-116 colon): > 84.2 µM
- GI50 (HCT-15 colon): 0.165 µM
- TGI (HCT-15 colon): > 250 µM
- GI50 (HL-60(TB) leukemia): 0.519 µM
- TGI (HL-60(TB) leukemia): 1.75 µM
- GI50 (HOP-62 NSCLC): 1.02 µM
- TGI (HOP-62 NSCLC): > 250 µM
- GI50 (HOP-92 NSCLC): 4.54 µM
- TGI (HOP-92 NSCLC): > 250 µM
- GI50 (HS 578T breast): 1.02 µM
- TGI (HS 578T breast): > 250 µM
- GI50 (HT29 colon): 0.174 µM
- TGI (HT29 colon): > 165 µM
- GI50 (IGROV1 ovarian): 0.877 µM
- TGI (IGROV1 ovarian): > 250 µM
- GI50 (K-562 leukemia): 0.215 µM
- TGI (K-562 leukemia): > 250 µM
- GI50 (KM12 colon): 0.153 µM
- TGI (KM12 colon): > 94.7 µM
- GI50 (LOX IMVI melanoma): 1.42 µM
- TGI (LOX IMVI melanoma): > 250 µM
- GI50 (M14 melanoma): 0.43 µM
- TGI (M14 melanoma): > 250 µM
- GI50 (MALME-3M melanoma): 1.3 µM
- TGI (MALME-3M melanoma): > 250 µM
- GI50 (MCF7 breast): 0.413 µM
- TGI (MCF7 breast): > 250 µM
- GI50 (MDA-MB-231 breast): 2.94 µM
- TGI (MDA-MB-231 breast): 23.7 µM
- GI50 (MDA-MB-435): 0.0743 µM
- TGI (MDA-MB-435): 0.412 µM
- GI50 (MOLT-4 leukemia): 1.52 µM
- TGI (MOLT-4 leukemia): > 145 µM
- TGI (NCI-H226 lung): > 250 µM
- GI50 (NCI-H23 lung): 1.33 µM
- TGI (NCI-H23 lung): > 250 µM
- GI50 (NCI-H460 lung): 0.729 µM
- TGI (NCI-H460 lung): > 60 µM
- GI50 (NCI-H522 lung): 0.412 µM
- TGI (NCI-H522 lung): > 250 µM
- GI50 (NCI/ADR-RES ovarian): 0.318 µM
- TGI (NCI/ADR-RES ovarian): 34.3 µM
- GI50 (OVCAR-3 ovarian): 0.485 µM
- GI50 (OVCAR-4 ovarian): 2.05 µM
- TGI (OVCAR-4 ovarian): > 250 µM
- GI50 (OVCAR-5 ovarian): 2.64 µM
- TGI (OVCAR-5 ovarian): > 250 µM
- GI50 (OVCAR-8 ovarian): 1.39 µM
- TGI (OVCAR-8 ovarian): > 250 µM
- GI50 (PC-3 prostate): 0.68 µM
- TGI (PC-3 prostate): > 250 µM
- GI50 (RPMI-8226 leukemia): 0.865 µM
- TGI (RPMI-8226 leukemia): 76.4 µM
- GI50 (SF-268 CNS): 3.68 µM
- TGI (SF-268 CNS): > 250 µM
- GI50 (SF-295 CNS): 1.11 µM
- TGI (SF-295 CNS): > 250 µM
- GI50 (SF-539 CNS): 0.764 µM
- TGI (SF-539 CNS): 3.28 µM
- GI50 (SK-MEL-2 melanoma): 1.55 µM
- TGI (SK-MEL-2 melanoma): > 250 µM
- GI50 (SK-MEL-28 melanoma): 4.87 µM
- TGI (SK-MEL-28 melanoma): > 250 µM
- GI50 (SK-MEL-5 melanoma): 0.783 µM
- TGI (SK-MEL-5 melanoma): 11.7 µM
- GI50 (SK-OV-3 ovarian): 0.845 µM
- TGI (SK-OV-3 ovarian): > 250 µM
- GI50 (SN12C renal): 1.39 µM
- TGI (SN12C renal): > 250 µM
- GI50 (SNB-19 CNS): 1.41 µM
- TGI (SNB-19 CNS): > 250 µM
- GI50 (SNB-75 CNS): 0.674 µM
- TGI (SNB-75 CNS): 2.38 µM
- GI50 (SR leukemia): 0.139 µM
- TGI (SR leukemia): > 104 µM
- GI50 (SW-620 colon): 0.273 µM
- TGI (SW-620 colon): > 250 µM
- GI50 (T-47D breast): 1.24 µM
- TGI (T-47D breast): > 250 µM
- GI50 (TK-10 renal): 2.95 µM
- TGI (TK-10 renal): > 250 µM
- GI50 (U251 CNS): 0.938 µM
- TGI (U251 CNS): 75.2 µM
- TGI (UACC-257 melanoma): > 250 µM
- GI50 (UACC-62 melanoma): 1.35 µM
- TGI (UACC-62 melanoma): > 250 µM
- GI50 (UO-31 renal): 1.9 µM
- TGI (UO-31 renal): > 250 µM

— PubChem BioAssay (NCI)
